# Test results published in US9682954B2, “Phenanthridine derivatives, preparation methods and uses thereof” (Kunming Institute of Botany, The Chinese Academy of Sciences, priority 2013, dated 2017).
# Read-outs that look alike come from different tables or passages of the source.
# How the values were obtained:
# [1] = test system: Wnt signaling pathway; test: Activity assay of the reporter gene (Wnt signaling pathway activation, Wnt3a conditioned medium); format: cell-based; settings: for activation of the reporter gene systems of classical Wnt signaling pathway: in the way of depending on Wnt3a receptors; for Concentration of compounds for doubly synergetic activating Wnt reporter gene: with Wnt3a conditioned medium
# Description: After 6 hours, the cells are collected and activities of the report genes are determined.
# Activity Assay of the Reporter Gene
# HEK293T, HCT116, SW480 or NIH3T3 cells used for activity assay of the reporter gene were inoculated into 24-wells plates respectively 24 hours before transfection then transfected following the above mentioned reference method. The amount of the plasmids used for Transfection was: 20 ng of TOPFlash, NFAT-Luc, or SRF-Luc, and 25 ng of EGFP-C1 (HEK293T); 25 ng of LEF-Luc, 75 ng of LEF1, and 25 ng of EGFP-C1 (NIH3T3); 100 ng of TOPFlash or Fopfllash and 100 ng of EGFP-C1 (HCT116 and SW480). The cells were transfected with other plasmids following experimental requirements, LacZs were added to meet a total content of 250 ng (in RNAi and plasmid co-transfection experiments, 1 μl of siRNA was added when every 100 ng/well of the plasmid was transfected). Wnt3a conditioned medium was added 18 hours after transfection to stimulate the cells for 6-8 hours, the cells were lysed using Boehringer Mannheim Luci-ferase Assay Kit (200 μl/well). Intensity of GFP proteins in cell lysates were determined as internal standards of expression quantity of the cells using fluorescence meter FL600 (BIO-TEK Inc. Winooski, Vt.), and then 20 μl of luciferase substrates were added. Luciferase activity was determined with Micro Lumate Plus (Perkin Elmer Inc. Wellesley, Mass.) luminometer. Finally, the luciferase activity was homogenized using activity of GFP.
# [2] = in vitro; settings: human
# Description: (§1) (1) Toxicity Experiment of the Compound on Huh7.5:
# (§2) 100 μL of Huh7.5 cells (1×10^5/ml) was inoculated in 96-wells plates and incubated in an incubator at 37° C. under 5% of CO2 and saturated humidity for 24 hrs. Then different concentration of the compound of the present invention and positive control (VX-950, telaprevir) were added respectively and incubated for a further 72 hrs. 10 μL of MTT (5 mg/mL) was added per well and incubated for another 4 hrs. After the cells were lysed with DMSO, OD570-630 […] was determined on ELIASA. In comparison with OD of the control group, inhibitory rate of each concentration on cell toxicity was calculated, and half toxic concentration of the compound was calculated with Reed-Muench method.
# [3] = test system: HCV; test: microbe, parasite or virus in culture; format: cell-based, Hepatitis C Virus (HCV); settings: Huh7.5 cells infected with HCV, intracellular HCV RNA by qRT-PCR, Reed-Muench method
# Description: (2) Anti-HCV Activity of the Compound in Cells:
# The total RNA was extracted from the cells. The intracellular content of HCV and RNA of internal control gene GAPDH were determined by real-time fluorescence qRT-PCR.
# [4] = test system: Huh7.5 cells; test: in vitro
# Description: as §1, §2
# [5] = Hepatitis C virus, Huh7.5, 72 h
Structure (SMILES),CC50 at 72 h [2] [µM],"EC50 [3, 5] [µM]",further results
"CCc1cccc2c1N(C)Cc1cc3c(cc1-2)OCO3 [Compound 9, 4-ethyl-5-methyl-5,6-dihydro-[1,3]dioxolo[4,5-j]phenanthridine]",–,–,activation of the reporter gene systems of classical Wnt signaling pathway [1]: activate the reporter gene systems of classical Wnt signaling pathway; Concentration of compounds for doubly synergetic activating Wnt reporter gene [1]: 3.75 µM
"CCc1cccc2c1N(C)Cc1cc(O)c(O)cc1-2 [Compound 10, 4-ethyl-5-methyl-5,6-dihydro-phenanthridine-8,9-diol]",61.3 ± 8.4,> 11.1,–
"CCc1cccc2c1N(C)Cc1cc(OC)c(OC)cc1-2 [Compound 10a, 4-ethyl-5-methyl-8,9-dimethoxy-5,6-dihydro-phenanthridine]",> 100,< 0.41,–
"CCOc1cc2c(cc1OCC)-c1cccc(CC)c1N(C)C2 [Compound 10b, 4-ethyl-5-methyl-8,9-diethyoxy-5,6-dihydro-phenanthridine]",–,–,"CC50 [4]: > 100 µM; EC50 ([3]; 72 hrs, read-out: EC50): 1.63 ± 1.22 µM"
"C=CCOc1cc2c(cc1OCC=C)-c1cccc(CC)c1N(C)C2 [Compound 10c, 4-ethyl-5-methyl-8,9-diallyloxy-5,6-dihydro-phenanthridine]",> 100,16.3 ± 10.1,–
"C#CCOc1cc2c(cc1OCC#C)-c1cccc(CC)c1N(C)C2 [Compound 10d, 4-ethyl-5-methyl-8,9-diprop-2-ynyloxy-5,6-dihydro-phenanthridine]",58.3 ± 2.1,0.83 ± 0.35,–
"CCc1cccc2c1N(C)Cc1cc(OCC3CCC3)c(OCC3CCC3)cc1-2 [Compound 10e, 4-ethyl-5-methyl-8,9-bis-cyclobutylmethoxy-5,6-dihydro-phenanthridine]",> 100,9.5 ± 2.71,–
"CCc1cccc2c1N(C)Cc1cc(OCC3CCCCC3)c(OCC3CCCCC3)cc1-2 [Compound 10f, 4-ethyl-5-methyl-8,9-bis-cyclohexylmethoxy-5,6-dihydro-phenanthridine]",> 100,10.8 ± 2.86,–
"CCc1cccc2c1N(C)Cc1cc(OCc3ccccc3)c(OCc3ccccc3)cc1-2 [Compound 10g, 4-ethyl-5-methyl-8,9-dibenzyloxy-5,6-dihydro-phenanthridine]",30.2 ± 0.6,1.25 ± 0.56,–
"CCc1cccc2c1N(C)Cc1cc(OCc3cccc(OC)c3OC)c(OCc3cccc(OC)c3OC)cc1-2 [Compound 10h, 4-ethyl-5-methyl-8,9-di(2,3-dimethoxy)benzyloxy-5,6-dihydro-phenanthridine]",–,–,"CC50 [4]: > 100 µM; EC50 ([3]; 72 hrs, read-out: EC50): 4.32 ± 0.1 µM"
"CCc1cccc2c1N(C)Cc1cc(OC(C)=O)c(OC(C)=O)cc1-2 [Compound 10j, 4-ethyl-5-methyl-8,9-diacetoxy-5,6-dihydro-phenanthridine]",90.1 ± 7.4,0.23 ± 0.08,–
"CCc1cccc2c1N(C)Cc1cc(OC(=O)C(C)C)c(OC(=O)C(C)C)cc1-2 [Compound 10l, 4-ethyl-5-methyl-8,9-diisobutyryloxy-5,6-dihydro-phenanthridine]",> 100,13.9 ± 11.4,–
"CCCCC(=O)Oc1cc2c(cc1OC(=O)CCCC)-c1cccc(CC)c1N(C)C2 [Compound 10m, 4-ethyl-5-methyl-8,9-divaleryoxy-5,6-dihydro-phenanthridine]",–,–,"CC50 [4]: > 100 µM; EC50 ([3]; 72 hrs, read-out: EC50): 9.39 ± 0.46 µM"
"CCc1cccc2c1N(C)Cc1cc(OC(=O)CC(C)C)c(OC(=O)CC(C)C)cc1-2 [Compound 10n, 4-ethyl-5-methyl-8,9-diisovaleroxy-5,6-dihydro-phenanthridine]",50.3 ± 1,1.43 ± 0.45,–
"CCc1cccc2c1N(C)Cc1cc(OC(=O)c3ccccc3)c(OC(=O)c3ccccc3)cc1-2 [Compound 10o, 4-ethyl-5-methyl-8,9-dibenzoyloxy-5,6-dihydro-phenanthridine]",91.5 ± 4.19,11 ± 2.23,–
"CCc1cccc2c1N(C)Cc1cc(OC(=O)c3ccc(Br)cc3)c(OC(=O)c3ccc(Br)cc3)cc1-2 [Compound 10p, 4-ethyl-5-methyl-8,9-di(4-bromo)benzoyloxy-5,6-dihydro-phenanthridine]",–,–,"CC50 [4]: > 100 µM; EC50 ([3]; 72 hrs, read-out: EC50): 1.19 ± 0.02 µM"
"CCc1cccc2c1N(C)Cc1cc(OCc3cn(CCNC(C)=O)nn3)c(OCc3cn(CCNC(C)=O)nn3)cc1-2 [Compound 10r, 4-ethyl-5-methyl-8,9-bis[1-(2-acetylamino-ethyl)-1H-[1,2,3]triazol-4-ylmethoxy]-5,6-dihydro-phenanthridine]",–,–,activation of the reporter gene systems of classical Wnt signaling pathway [1]: activate the reporter gene systems of classical Wnt signaling pathway; Concentration of compounds for doubly synergetic activating Wnt reporter gene [1]: 1.25 µM
"C=Cc1cccc2c1N(C)Cc1cc(O)c(O)cc1-2 [Compound 11, 4-ethenyl-5-methyl-5,6-dihydrophenanthridine-8,9-diol]",> 100,8.37 ± 2.39,–
"C=CCOc1cc2c(cc1OCC=C)-c1cccc(C=C)c1N(C)C2 [Compound 11a, 4-ethenyl-5-methyl-8,9-diallyloxy-5,6-dihydro-phenanthridine]",> 100,28.8 ± 5.38,–
"C#CCOc1cc2c(cc1OCC#C)-c1cccc(C=C)c1N(C)C2 [Compound 11b, 4-ethenyl-5-methyl-8,9-di(prop-2-ynyloxy)-5,6-dihydro-phenanthridine]",> 100,4.2 ± 1.72,–
"C=Cc1cccc2c1N(C)Cc1cc(OCC3CCC3)c(OCC3CCC3)cc1-2 [Compound 11c, 4-ethenyl-5-methyl-8,9-bis-cyclobutylmethoxy-5,6-dihydro-phenanthridine]",> 100,11.3 ± 1.66,–
"C=Cc1cccc2c1N(C)Cc1cc(OCC3CCCCC3)c(OCC3CCCCC3)cc1-2 [Compound 11d, 4-ethenyl-5-methyl-8,9-bis-cyclohexylmethoxy-5,6-dihydro-phenanthridine]",> 100,> 33.3,–
"C=Cc1cccc2c1N(C)Cc1cc(OCc3ccccc3)c(OCc3ccccc3)cc1-2 [Compound 11e, 4-ethenyl-5-methyl-8,9-dibenzyloxy-5,6-dihydro-phenanthridine]",> 100,13.4 ± 0.98,–
"C=Cc1cccc2c1N(C)Cc1cc(OC(C)=O)c(OC(C)=O)cc1-2 [Compound 11h, 4-ethenyl-5-methyl-8,9-diacetoxy-5,6-dihydro-phenanthridine]",> 100,1.63 ± 0.91,–
"C=Cc1cccc2c1N(C)Cc1cc(OC(=O)CC)c(OC(=O)CC)cc1-2 [Compound 11i, 4-ethenyl-5-methyl-8,9-dipropionyloxy-5,6-dihydro-phenanthridine]",> 100,1.02 ± 0.16,–
"C=Cc1cccc2c1N(C)Cc1cc(OC(=O)C(C)C)c(OC(=O)C(C)C)cc1-2 [Compound 11j, 4-ethenyl-5-methyl-8,9-diisobutyryloxy-5,6-dihydro-phenanthridine]",> 100,1.83 ± 0.17,–
"C=Cc1cccc2c1N(C)Cc1cc(OC(=O)CC(C)C)c(OC(=O)CC(C)C)cc1-2 [Compound 11l, 4-ethenyl-5-methyl-8,9-diisovaleroxy-5,6-dihydro-phenanthridine]",> 100,3.27 ± 1.26,–
"C=Cc1cccc2c1N(C)Cc1cc(OC(=O)c3ccccc3)c(OC(=O)c3ccccc3)cc1-2 [Compound 11m, 4-ethenyl-5-methyl-8,9-dibenzoyloxy-5,6-dihydro-phenanthridine]",> 100,1.03 ± 0.07,–
"C=Cc1cccc2c1N(C)Cc1cc(OCc3cn(CCN)nn3)c(OCc3cn(CCN)nn3)cc1-2 [Compound 11q, 4-ethenyl-5-methyl-8,9-bis[1-(2-amino-ethyl)-1H-[1,2,3]triazol-4-ylmethoxy]-5,6-dihydrophenanthridine]",–,–,activation of the reporter gene systems of classical Wnt signaling pathway [1]: activate the reporter gene systems of classical Wnt signaling pathway; Concentration of compounds for doubly synergetic activating Wnt reporter gene [1]: 2.5 µM
"C=Cc1cccc2c1N(C)Cc1cc(OCc3cn(CCNC(C)=O)nn3)c(OCc3cn(CCNC(C)=O)nn3)cc1-2 [Compound 11r, 4-ethenyl-5-methyl-8,9-bis[1-(2-acetylamino-ethyl)-1H-[1,2,3]triazol-4-ylmethoxy]-5,6-dihydro-phenanthridine]",–,–,activation of the reporter gene systems of classical Wnt signaling pathway [1]: activate the reporter gene systems of classical Wnt signaling pathway; Concentration of compounds for doubly synergetic activating Wnt reporter gene [1]: 5 µM
